Results reported in patent US9574174B2, “Cell culture” (PLASTICELL LIMITED, priority 2002, dated 2017).

Key:
[1] = test system: mouse ES cells; assay: RT-PCR detection of differential gene expression in ES cell units after split-split culture; assay type: cell-based; conditions: DMEM, 1 μM, FIG. 11
Protocol: Pluripotent mouse ES cell units were cultured for five days in ES cell medium (see example 3), the ES medium was decanted and the cell units washed twice with PBS to remove traces of ES medium. The bead population was split into three groups, and the PBS decanted and replaced with one of (i) ES cell medium; (ii) Dulbecco's modified Eagle's medium (DMEM) with 10% fetal calf serum; or (iii) Chemically Defined Medium (CDM; Wiles M V, Johansson B M, 1999, Exp. Cell Res., vol 247, p. 241-8). After one hour culture under standard conditions, each of the three groups were split into three further groups, each of which was incubated in one of: (i) the medium in which the cell groups were cultured; the medium in which the cell groups were cultured including 1 μM LiCl; or (iii) the medium in which the cell groups were cultured including 1 μm retinoic acid (RA). Every other day half the medium was replaced with the respective fresh medium.
Cell units of mouse ES cells induced to differentiate by split-split culture (see example 4) were washed with PBS, and RNA prepared from the cell units using Rneasy reagents according to manufacturer's instructions (Qiagen). RNA samples were then used to prepare first strand cDNA with oligo-dT priming using reverse transcriptase according to the manufacturer's instructions (Invitrogen). […]

[2] = test system: cytochrome P450 (CyP450) metabolic enzymes; assay: CyP450 ethoxyresorufin assay on HepG2 cell units; assay type: cell-based, human
Protocol: A split-pool culture experiment was performed in order to assay tissue culture conditions that might affect a particular cellular process, namely the expression and/or activity of cytochrome P450 (CyP450) metabolic enzymes. Members of this class of enzyme, such as 1A1 and 1A2, can be assayed with the use of a substrate, ethoxyresorufin, that is enzymatically hydrolyzed to produce a product, resorufin, that has distinct fluorescence characteristics that can be used to measure CyP450 enzyme activity. The expression of CyP450 enzymes can be regulated by inducer molecules, such as β-naphthoflavone, and inhibitors such as α-naphthoflavone, quinidine, or aminotriazole. It is also possible for some molecules to induce expression of a CyP450 gene(s), but inhibit activity of the enzyme product of that gene. Therefore, complicated patterns of expression and activity can arise according to the pattern of serial exposure of cells to regulatory compounds. […]
For the CyP450 assay, aliquots of beads in growth medium were removed and the enzyme substrate ethoxyresorufin was added to a final concentration of 10 μM. The samples of beads were placed on a microscope slide with a cover slip, and observed immediately with an epifluorescent microscope using a standard filter set for Texas Red/rhodamine fluorescence (see FIG. 9). […]

P450 level / conversion of ethoxyresorufin to fluorescent product ([2]; HepG2 cell units following a split pool experiment, FIG. 9 Panels E/F) | time until enzyme activity (resorufin fluorescence) is evident after addition of ethoxyresorufin ([2]; HepG2 cell units on CYTODEX 3 treated in a control experiment, 10 μM ethoxyresorufin, control cells about 15-20 minutes) [min] | SMILES | decrease in Oct4 [1]
– | – | [Cl-].[Li+] [LiCl] | inhibited the reduction
high levels of P450 | 5 to 10 | O=c1cc(-c2ccccc2)oc2ccc3ccccc3c12 [β-naphthoflavone] | –
